Data: patent US20250154198A1, “PEPTIDE INHIBITORS OF INTERLEUKIN-23 RECEPTOR” (Zealand Pharma A/S, priority 2021, published 2025)
*1 amine or outer side, *2 acyl side, *3 side chain or, on linkers, in order; H or OH if unused. Where a SMILES comes first, the peptide text is derived from it. Bridges are numbered along the chain shown (N, C = ends). [ ]: non-standard residue; d: D form. Pipz(1-CH2CO,4-CH2CH2NH) = O=C(CN1CCN(CCN[*:1])CC1)[*:2]; dTrp(6-F) = N[C@H](Cc1c[nH]c2cc(F)ccc12)C(=O)O; αMeAla(3-pyridyl) = C[C@](N)(Cc1cccnc1)C(=O)O; Trp(1-Me) = Cn1cc(C[C@H](N)C(=O)O)c2ccccc21; Phe(3,4-Me2) = Cc1ccc(C[C@H](N)C(=O)O)cc1C; Phe(4-Me) = Cc1ccc(C[C@H](N)C(=O)O)cc1; dPhe(4-F) = N[C@H](Cc1ccc(F)cc1)C(=O)O; 2Nal = N[C@@H](Cc1ccc2ccccc2c1)C(=O)O; AEF = NCCOc1ccc(C[C@H](N)C(=O)O)cc1; X1 = O=C(Cc1ccc(CN[*:1])cc1)[*:2]; αMeL = CC(C)C[C@](C)(N)C(=O)O; CH2COCH2 = O=C(C[*:1])C[*:2]; Phg = N[C@H](C(=O)O)c1ccccc1; αMeV = CC(C)[C@](C)(N)C(=O)O; Dab = NCC[C@H](N)C(=O)O; Ahx = NCCCCCC(=O)O

Experiments:
human IL-23R = target: T1, human IL-23R (Homo sapiens, UniProt Q5VWK5); assay: Binding assay (NanoBRET displacement of fluorophore-labelled reference compound) for estimating binding affinity to human IL-23R; conditions: Table 3-1; read-out: Ki hIL-23R
T1 construct: UniProtKB—Q5VWK5, amino acids 22-629; secretion signal of the plasmid (Promega N1371); expressed in transfected cells
T1 sequence (Q5VWK5 22-629): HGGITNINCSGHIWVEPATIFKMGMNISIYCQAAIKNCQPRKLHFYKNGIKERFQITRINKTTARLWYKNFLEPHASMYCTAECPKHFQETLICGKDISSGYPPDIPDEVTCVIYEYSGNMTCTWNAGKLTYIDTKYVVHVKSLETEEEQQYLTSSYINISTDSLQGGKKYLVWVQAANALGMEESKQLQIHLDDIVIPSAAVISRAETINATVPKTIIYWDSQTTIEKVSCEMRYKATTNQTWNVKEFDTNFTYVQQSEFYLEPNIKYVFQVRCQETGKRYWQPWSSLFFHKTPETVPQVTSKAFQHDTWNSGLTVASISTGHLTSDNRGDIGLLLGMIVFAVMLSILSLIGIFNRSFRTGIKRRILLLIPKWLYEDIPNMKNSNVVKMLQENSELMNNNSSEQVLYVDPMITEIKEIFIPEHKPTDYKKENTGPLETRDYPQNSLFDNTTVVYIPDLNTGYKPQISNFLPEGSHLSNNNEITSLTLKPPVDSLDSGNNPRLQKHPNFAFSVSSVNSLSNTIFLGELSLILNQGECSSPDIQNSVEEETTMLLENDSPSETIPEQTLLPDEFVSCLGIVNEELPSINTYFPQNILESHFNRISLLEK

[1] = Peptide stability in simulated intestinal fluid (SIF); type: in vitro ADME; conditions: pig, simulated intestinal fluid (SIF) with porcine pancreatin, Table 3-2, porcine pancreatin, pH 6.8, 37° C., 10 μM; for remaining at 1 h, 10 μM: read-out: SIF (% remaining 1 h); for remaining at 4 h, 10 μM: read-out: SIF (% remaining 4 h)
Method: Determination of Peptide Stability in Simulated Gastric Fluid (SGF) and Simulated Intestinal Fluid (SIF)
SGF was prepared by dissolving sodium chloride (0.2 g) in 50 mL of water. A volume of 0.7 mL of 10 M HCl was added to adjust the pH of the solution to 1.2 and the volume made up to 100 mL with water. […] SIF was prepared by dissolving monobasic potassium phosphate (0.68 g) in 50 mL of water and adjusting the pH to 6.8 with 1 M NaOH. The volume was subsequently made up to 100 mL with water. 200 mg porcine pancreatin (P1625, Sigma Aldrich) was gently dissolved into 20 mL preheated (37° C.) solution (10 g/L) immediately prior to the incubation.
The incubation was performed at 37° C. with gentle shaking. […] After the last timepoint, the sampling plate was mixed for 10 min on a shaking table and centrifuged 10 min at 2200 g. 70 μL resulting supernatant was diluted with 150 μL water, mixed and centrifugated before analysis by liquid chromatography high resolution mass spectrometry. […] Percent remaining at each timepoint was calculated relative to timepoint zero based on absolute peak areas.

SMILES	Ki (human IL-23R)	remaining at 1 h, 10 μM [1]	remaining at 4 h, 10 μM [1]
CC(C)C[C@]1(C)NC(=O)[C@H](Cc2ccc3ccccc3c2)NC(=O)[C@H](Cc2ccc(OCCN)cc2)NC(=O)[C@@H]2CCC(=O)NCC[C@H](NC(=O)[C@H](CO)NC(=O)Cc3ccc(cc3)CNC(=O)CC[C@@H](C(=O)N[C@@H](CCN)C(=O)N[C@@H](Cc3cccnc3)C(N)=O)NC1=O)C(=O)N[C@@H](Cc1c[nH]c3ccccc13)C(=O)N[C@@H](CCC(N)=O)C(=O)N2 (relative stereo) [Compound 123, [4-Aminomethyl-phenylacetyl](1c)*S[Dab](2c)WQE(2c)[Y(2-aminoethoxy)][2-Nal][2-Me-Leu]E(1c)[Dab][3-(3-Pyridyl)-Ala]-[NH2]]	0.00783 nM	46%	4%
CC[C@H](C)[C@@H]1NC(=O)Cc2ccc(cc2)CNC(=O)CC[C@@H](C(=O)N[C@@H](CCN)C(=O)N[C@@](C)(Cc2cccnc2)C(N)=O)NC(=O)[C@](C)(C(C)C)NC(=O)[C@H](Cc2ccc(C)c(C)c2)NC(=O)[C@H](c2ccccc2)NC(=O)[C@@H]2CCNC(=O)CC[C@H](NC1=O)C(=O)N[C@@H](Cc1c[nH]c3ccccc13)C(=O)N[C@@H](CCC(N)=O)C(=O)N2 [Compound 174, [4-Aminomethyl-phenylacetyl](1c)*IE(2c)WQ[Dab](2c)[Phg][F(3,4-Me)][2-Me-Val]E(1c)[Dab][2-Me-3-(3-Pyridyl)-Ala]-[NH2]] ([X1]IEWQ[Dab][Phg][Phe(3,4-Me2)][αMeV]E[Dab][αMeAla(3-pyridyl)]-NH2; lactam 3-6, N-10)			86%
CC[C@H](C)[C@@H]1NC(=O)Cc2ccc(cc2)CNC(=O)CC[C@@H](C(=O)N[C@@H](CCN)C(=O)N[C@@](C)(Cc2cccnc2)C(N)=O)NC(=O)[C@](C)(C(C)C)NC(=O)[C@H](Cc2cn(C)c3ccccc23)NC(=O)[C@H](Cc2ccc(C)cc2)NC(=O)[C@@H]2CCNC(=O)CC[C@H](NC1=O)C(=O)N[C@@H](Cc1c[nH]c3ccccc13)C(=O)N[C@@H](CCC(N)=O)C(=O)N2 [Compound 175, [4-Aminomethyl-phenylacetyl](1c)*IE(2c)WQ[Dab](2c)[F(4-Me)][1-Me-Trp][2-Me-Val]E(1c)[Dab][2-Me-3-(3-Pyridyl)-Ala]-[NH2]] ([X1]IEWQ[Dab][Phe(4-Me)][Trp(1-Me)][αMeV]E[Dab][αMeAla(3-pyridyl)]-NH2; lactam 3-6, N-10)			93%
CC[C@H](C)[C@@H]1NC(=O)Cc2ccc(cc2)CNC(=O)CC[C@@H](C(=O)N[C@@H](CCN)C(=O)N[C@@](C)(Cc2cccnc2)C(N)=O)NC(=O)[C@](C)(C(C)C)NC(=O)[C@@H](Cc2c[nH]c3cc(F)ccc23)NC(=O)[C@H](Cc2ccc(C)cc2)NC(=O)[C@@H]2CCNC(=O)CC[C@H](NC1=O)C(=O)N[C@@H](Cc1c[nH]c3ccccc13)C(=O)N[C@@H](CCC(N)=O)C(=O)N2 [Compound 177, [4-Aminomethyl-phenylacetyl](1c)*IE(2c)WQ[Dab](2c)[F(4-Me)][{d}6-F-Trp][2-Me-Val]E(1c)[Dab][2-Me-3-(3-Pyridyl)-Ala]-[NH2]] ([X1]IEWQ[Dab][Phe(4-Me)][dTrp(6-F)][αMeV]E[Dab][αMeAla(3-pyridyl)]-NH2; lactam 3-6, N-10)			63%

Further lines, results first:

Ki (human IL-23R)	remaining at 1 h, 10 μM [1]	remaining at 4 h, 10 μM [1]	SMILES
17 nM	0%	0%	CC(=O)N[C@H]1CCCCNC(=O)CC[C@@H](C(=O)N[C@@H](CCCNC(=N)N)C(N)=O)NC(=O)[C@@H](CC(C)C)NC(=O)[C@H](Cc2ccc3ccccc3c2)NC(=O)[C@H](Cc2ccc(OCCN)cc2)NC(=O)[C@@H]2CSCC(=O)CSC[C@H](NC(=O)[C@H](CO)NC1=O)C(=O)N[C@@H](Cc1c[nH]c3ccccc13)C(=O)N[C@@H](CCC(N)=O)C(=O)N2 [Compound 48, [Ac]-K(1c)SC(2a)WQC(2a)[Y(2-aminoethoxy)][2-Nal][{d}L]E(1c)R-[NH2]] (Ac-KSCWQC[AEF][2Nal][dL]ER-NH2; lactam 1-10; linker 3-6 via CH2COCH2)
0.321 nM		74%	CC(=O)N[C@H]1CCCCNC(=O)CC[C@@H](C(=O)N[C@H](CCCNC(=N)N)C(N)=O)NC(=O)[C@](C)(CC(C)C)NC(=O)[C@H](Cc2ccc3ccccc3c2)NC(=O)[C@H](Cc2ccc(OCCN)cc2)NC(=O)[C@@H]2CSCC(=O)CSC[C@H](NC(=O)[C@H]([C@@H](C)O)NC1=O)C(=O)N[C@@H](Cc1c[nH]c3ccccc13)C(=O)N[C@@H](CCC(N)=O)C(=O)N2 [Compound 85, [Ac]-K(1c)TC(2a)WQC(2a)[Y(2-aminoethoxy)][2-Nal][2-Me-Leu]E(1c)[{d}R]-[NH2]] (Ac-KTCWQC[AEF][2Nal][αMeL]E[dR]-NH2; lactam 1-10; linker 3-6 via CH2COCH2)
0.439 nM	95%		CC(C)C[C@]1(C)NC(=O)[C@H](Cc2ccc3ccccc3c2)NC(=O)[C@H](Cc2ccc(OCCN)cc2)NC(=O)[C@@H]2CSCC(=O)CSC[C@H](NC(=O)[C@H](CO)NC(=O)CCCCCNC(=O)CC[C@@H](C(=O)N[C@H](CCCNC(=N)N)C(N)=O)NC1=O)C(=O)N[C@@H](Cc1c[nH]c3ccccc13)C(=O)N[C@@H](CCC(N)=O)C(=O)N2 [Compound 87, [6-Aminohexanoyl](1c)*SC(2a)WQC(2a)[Y(2-aminoethoxy)][2-Nal][2-Me-Leu]E(1c)[{d}R]-[NH2]] ([Ahx]SCWQC[AEF][2Nal][αMeL]E[dR]-NH2; linker 3-6 via CH2COCH2; lactam N-10)
0.706 nM		67%	CC(C)C[C@]1(C)NC(=O)[C@H](Cc2ccc3ccccc3c2)NC(=O)[C@H](Cc2ccc(OCCN)cc2)NC(=O)[C@@H]2CSCC(=O)CSC[C@H](NC(=O)[C@H](CO)NC(=O)CN3CCN(CCNC(=O)CC[C@@H](C(=O)N[C@H](CCCNC(=N)N)C(N)=O)NC1=O)CC3)C(=O)N[C@@H](Cc1c[nH]c3ccccc13)C(=O)N[C@@H](CCC(N)=O)C(=O)N2 [Compound 90, [(4-(2-Aminoethyl)-piperazine-1-yl)-acetyl](1c)*SC(2a)WQC(2a)[Y(2-aminoethoxy)][2-Nal][2-Me-Leu]E(1c)[{d}R]-[NH2]] ([Pipz(1-CH2CO,4-CH2CH2NH)]SCWQC[AEF][2Nal][αMeL]E[dR]-NH2; linker 3-6 via CH2COCH2; lactam N-10)
		62%	CC[C@H](C)[C@@H]1NC(=O)Cc2ccc(cc2)CNC(=O)CC[C@@H](C(=O)N[C@@H](CCN)C(=O)N[C@@](C)(Cc2cccnc2)C(N)=O)NC(=O)[C@](C)(C(C)C)NC(=O)[C@H](Cc2ccc(C)c(C)c2)NC(=O)[C@@H](Cc2ccc(F)cc2)NC(=O)[C@@H]2CCNC(=O)CC[C@H](NC1=O)C(=O)N[C@@H](Cc1c[nH]c3ccccc13)C(=O)N[C@@H](CCC(N)=O)C(=O)N2 [Compound 170, [4-Aminomethyl-phenylacetyl](1c)*IE(2c)WQ[Dab](2c)[{d}F(4-F)][F(3,4-Me)][2-Me-Val]E(1c)[Dab][2-Me-3-(3-Pyridyl)-Ala]-[NH2]] ([X1]IEWQ[Dab][dPhe(4-F)][Phe(3,4-Me2)][αMeV]E[Dab][αMeAla(3-pyridyl)]-NH2; lactam 3-6, N-10)
